Source: PubChem BioAssay (NCI)
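Values below derive from 48-hour exposures of cells grown in 96-well plates, with endpoints linearly interpolated between the two concentrations bracketing the appropriate inhibition level. GI50 = concentration required for 50% inhibition of growth. TGI: concentration producing complete growth inhibition.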

Columns and labels:
Test in all cases: DTP human tumour cell line panel, 48 h
HT29 colon = tested on: HT29 colon
NCI-H226 lung = tested on: NCI-H226 lung
MCF7 breast = tested on: MCF7 breast
ACHN renal = tested on: ACHN renal
CAKI-1 renal = tested on: CAKI-1 renal
SK-MEL-5 melanoma = tested on: SK-MEL-5 melanoma
OVCAR-4 ovarian = tested on: OVCAR-4 ovarian
LOX IMVI melanoma = tested on: LOX IMVI melanoma
M14 melanoma = tested on: M14 melanoma
MOLT-4 leukemia = tested on: MOLT-4 leukemia

| Structure (SMILES) | GI50 (HT29 colon) [µM] | TGI (HT29 colon) [µM] | GI50 (NCI-H226 lung) [µM] | TGI (NCI-H226 lung) [µM] | GI50 (MCF7 breast) [µM] | TGI (MCF7 breast) [µM] | GI50 (ACHN renal) [µM] | TGI (ACHN renal) [µM] | GI50 (CAKI-1 renal) [µM] | TGI (CAKI-1 renal) [µM] | GI50 (SK-MEL-5 melanoma) [µM] | TGI (SK-MEL-5 melanoma) [µM] | GI50 (OVCAR-4 ovarian) [µM] | TGI (OVCAR-4 ovarian) [µM] | GI50 (LOX IMVI melanoma) [µM] | TGI (LOX IMVI melanoma) [µM] | GI50 (M14 melanoma) [µM] | TGI (M14 melanoma) [µM] | GI50 (MOLT-4 leukemia) [µM] | TGI (MOLT-4 leukemia) [µM] |
| --- | --- | --- | --- | --- | --- | --- | --- | --- | --- | --- | --- | --- | --- | --- | --- | --- | --- | --- | --- | --- |
| COC(=O)[C@]12CC[C@@H](C)[C@H](C)[C@@H]1C1=CC[C@@H]3[C@@]4(C)C(C=O)=C[C@@](C)(COC(=O)/C=C/c5ccccc5)[C@@H]4[C@H](O)C[C@@]3(C)[C@]1(C)CC2 | 3.1 | 10.2 | 2.36 | 9.66 | 2.37 | 11.3 | 2.76 | 9.95 | 3.56 | > 100 | 2.2 | 5.92 | 3.16 | > 100 | 1.77 | 3.66 | 3.33 | 17.3 | 2.09 | 7.36 |
| CN(C)CCNC(=O)NC[C@H]1CC[C@@H]2[C@H](O1)c1cc(C(F)(F)F)ccc1N[C@H]2c1ccccc1 | 0.303 | 11.2 | 15.1 | 43.4 | 0.0389 | 13.8 | 10.5 | 23 | 4.74 | > 68.2 | 0.0999 | 15.8 | 3.03 | 22.2 | 2.53 | 27.3 | 0.041 | 0.684 | 0.373 | 19.6 |
| CN(C)c1ccc2nc(CC(O)(C(F)(F)F)C(F)(F)F)ccc2c1 | – | > 10 | – | > 10 | – | > 10 | – | > 10 | – | > 10 | – | > 10 | – | > 10 | – | > 10 | – | > 10 | – | > 10 |
| COc1ccc(OC)c(/C=C/c2nc(SCc3ccccc3)n(-c3ccc(Cl)cc3)n2)c1 | 3.93 | 21.5 | 27.8 | > 100 | 4.78 | > 100 | 23.2 | > 100 | 2.09 | 5.28 | 4.75 | 21.9 | 67 | > 100 | 2.89 | > 100 | 4.22 | > 100 | 6.51 | > 100 |
| COc1ccc2c(c1OC(C)=O)C1=CC(=O)CCC13CCNC3C2 (stereo not given) | – | > 100 | – | > 100 | – | > 100 | – | > 100 | – | > 100 | – | > 100 | – | > 100 | – | > 100 | – | > 100 | – | > 100 |
| COc1ccc2c(c1)C(=O)c1c-2c(Nc2cccc(C(C)=O)c2)nc2ccccc12 | 21.2 | > 100 | 11.7 | 35.8 | 24 | > 100 | 4.21 | 14.9 | 20.3 | 43.6 | 5.22 | 18.9 | 15.5 | > 100 | 13.4 | 27.5 | 15.5 | 46.5 | 64.6 | > 100 |
| C#Cc1cccc(NC(=O)c2ccc(NC(=O)CCl)cc2)c1 | 16 | 45.4 | 48.7 | > 82.5 | 22.6 | > 82.5 | 26.3 | > 82.5 | > 82.5 | > 82.5 | 24.9 | > 82.5 | 16.7 | 72 | 11.2 | 23.5 | 22.2 | > 82.5 | 12.4 | 40 |
| Cc1ccc(S(=O)(=O)N2CCc3ccc(O)c4c3C2Cc2ccc3c(c2-4)OCO3)cc1 (stereo not given) | 2.79 | 7.25 | 4.71 | 34.3 | 0.317 | 10.2 | 0.769 | > 60.8 | 0.737 | 22.6 | 0.486 | 2.18 | 0.934 | 33.3 | 0.635 | 4.68 | 0.511 | 3.86 | 2.42 | 20.3 |
| [CH3][Sn]([CH3])([CH3])[O][N+](=O)[O-] | 5.8 | > 10 | 3.5 | 7.39 | 2.87 | > 10 | > 10 | > 10 | 4.24 | > 10 | 1.52 | 2.97 | 2.66 | 5.53 | 2.52 | 6.63 | 6.33 | > 10 | 3.2 | > 10 |
| CC1=C([Se]CC(OC(=O)[C@@H](CO)NC(=O)OC(C)(C)C)C(=O)NCCCCCC(=O)OCc2ccccc2)C(=O)c2ccccc2C1=O (stereo not given in full) | 2.15 | 3.97 | 2.25 | 4.41 | 1.61 | 3.36 | 1.65 | 3.07 | 1.8 | 3.32 | 1.59 | 2.96 | 1.53 | 2.86 | 1.84 | 3.72 | 1.79 | 3.3 | 1.39 | 4.93 |
| C=C1C(=O)O[C@H]2[C@H]1CC/C(COC(=O)NCCCCCCCCNC(=O)OC/C1=C/CC[C@@]3(C)O[C@H]3[C@H]3OC(=O)C(=C)[C@@H]3CC1)=C\CC[C@@]1(C)O[C@@H]21 | 0.228 | 0.554 | 1.81 | 4.39 | 0.221 | 0.833 | 0.258 | 0.662 | 0.657 | 2.02 | 1.21 | 2.59 | 0.521 | 1.86 | 0.178 | 0.368 | 0.272 | 0.8 | 0.33 | 1.18 |
| COc1ccc(N(C)c2nc(Cl)nc3cnn(C)c23)cc1 | < 0.01 | > 100 | < 0.01 | > 100 | < 0.01 | > 100 | < 0.0145 | > 100 | < 0.01 | > 100 | < 0.01 | 0.0874 | 0.0795 | > 100 | < 0.011 | > 100 | < 0.01 | > 100 | 0.0193 | > 100 |
| CN(C)CCOC(=O)Nc1nc2ccc(Sc3ccccc3)cc2[nH]1 | 3.57 | 10.7 | 4.61 | 28.1 | 1.35 | 15.2 | 6.52 | 19.2 | 3.16 | 17.2 | 3.31 | 12.5 | 6.3 | > 100 | 4.26 | 15.9 | 2.28 | 9.29 | 5.32 | 20.1 |
| COc1cc2c(cc1C)NC(=O)/C2=C\c1c[nH]c2ccccc12 | 5.27 | 55.9 | 15.1 | 41.6 | 12.4 | 49.7 | 11.5 | 27.3 | 10.6 | 32.3 | 14.9 | 30.5 | 12.3 | 40.5 | 11.4 | 29.3 | 12.7 | 46.1 | 5.87 | 43.5 |
| CCn1ccc(NS(=O)(=O)c2ccc(N)cc2)nc1=O | > 100 | > 100 | > 100 | > 100 | > 100 | > 100 | > 100 | > 100 | > 100 | > 100 | > 100 | > 100 | > 100 | > 100 | > 100 | > 100 | > 100 | > 100 | > 100 | > 100 |
| Nc1ccc(Sc2c3ccccc3nc3ccccc23)cc1 | – | 32 | – | 58.4 | – | 28.8 | – | 28.3 | – | 39 | – | 30.6 | – | 29.4 | – | 13.9 | – | 30.1 | – | 27.1 |
| Cc1cc(Cl)cc(Cc2cc(Cl)cc(C)c2O)c1O | 3.63 | 10.7 | 4.17 | 20.1 | 2.47 | 9.66 | 2.26 | 7.26 | 2.32 | 9.57 | 1.71 | 3.61 | 3.29 | 50.6 | 3 | 8.9 | 2.98 | 11.3 | 3.45 | 49.8 |
| O=C(O[C@H]1CCN2C[C@H]3C[C@H](CN4C(=O)CCC[C@H]34)[C@@H]2C1)c1ccc(O)cc1 | – | > 100 | – | > 100 | – | > 100 | – | > 100 | – | > 100 | – | – | – | > 100 | – | > 100 | – | > 100 | – | – |
| O=[N+]([O-])c1cc2c([N+](=O)[O-])cccc2o1 | – | 66.6 | – | 30.4 | – | 13.8 | – | 10.6 | – | 5.77 | – | 33.2 | – | 3.63 | – | > 100 | – | 24.9 | – | – |
| Cc1nccc2c3ccc(OCc4cn(-c5ccc(Cl)cc5)nn4)cc3n(CC(C)C)c12 | 1.25 | 10.4 | 3.47 | 13.7 | 1.45 | 9.29 | 3.62 | 9.59 | – | – | 1.64 | 6.15 | 2.24 | 15.1 | 3.63 | > 33.3 | 1.61 | 13.9 | 1.14 | 6.54 |
